In patent publication US20060069132A1, “Azolecarboxamide herbicides” (priority 2004, published 2006):
Read-outs that look alike come from different tables or passages of the source.

Assays:
woolly cupgrass = test: Test C pre-/postemergence herbicide test; assay type: in vivo, Eriochloa villosa
How it was run: (§1)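 Greenhouse-grown plants were evaluated visually 12 to 14 days after treatment, with 100 meaning complete control and 0 no effect. Application was preemergence, or postemergence at 2 to 18 cm.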

velvetleaf = test: Test C pre-/postemergence herbicide test; assay type: in vivo, Abutilon theophrasti
How it was run: as §1

yellow nutsedge = test: Test C pre-/postemergence herbicide test; assay type: in vivo, Cyperus esculentus
How it was run: as §1

bermudagrass = test: Test C pre-/postemergence herbicide test; assay type: in vivo, Cynodon dactylon
How it was run: as §1

[1] = system: common (oilseed) sunflower; test: Test C pre-/postemergence herbicide test; assay type: in vivo, Helianthus annuus
How it was run: as §1

morningglory = test: Test A pre-/postemergence herbicide test; assay type: in vivo, Ipomoea spp.; settings: for pest or weed control at 500 g/ha / pest or weed control at 2000 g/ha: Ipomoea, 240 h
How it was run: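 Plants are held in greenhouse about ten days after treatment, then compared with untreated controls and scored 0 (no effect) to 100 (complete control). Preemergence dosing is a directed soil spray on sown sandy loam; postemergence dosing is spray to runoff at 2–10 cm height.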

giant foxtail = test: Test C pre-/postemergence herbicide test; assay type: in vivo, Setaria faberi
How it was run: as §1

barnyardgrass = test: Test C flooded paddy test; assay type: in vivo, Echinochloa crus-galli
How it was run: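 Greenhouse test with a 12–14 day hold after application and visual comparison with controls. Emerged plants were 1- to 4-leaf stage (2–18 cm) when sprayed postemergence, and the paddy barnyardgrass was at 2 leaves under flooded conditions. 100 = complete control.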

[2] = 31 g ai/ha, preemergence, scale 0 to 100
[3] = 125 g ai/ha, scale 0 (no effect) to 100 (complete control), visual, 12 to 14 days, preemergence
[4] = 250 g ai/ha, scale 0 to 100 (0 no effect, 100 complete control), visual, 12 to 14 days, preemergence
[5] = Postemergence, 500 g ai/ha, 0 to 100 scale, 0 no effect, 100 complete control
[6] = Postemergence, 2000 g ai/ha, 0 to 100 scale, 0 no effect, 100 complete control
[7] = Preemergence, 500 g ai/ha, visual rating, 0 to 100 scale (0 no effect, 100 complete control)
[8] = 62 g ai/ha, scale 0 to 100 (0 no effect, 100 complete control)
[9] = 125 g ai/ha, scale of 0 to 100, 0 is no effect, 100 is complete control
[10] = 250 g ai/ha, scale of 0 to 100, 0 is no effect, 100 is complete control
[11] = 500 g ai/ha, visual rating after 12 to 14 days, scale 0 to 100 (0 no effect, 100 complete control)

`CCc1nn(C(C)(C)C)cc1C(=O)Nc1cc(C(=O)N(C)C)ccc1F` [Compound 222, N-[5-[(dimethylamino)carbonyl]-2-fluorophenyl]-1-(1,1-dimethylethyl)-3-ethyl-1H-pyrazole-4-carboxamide] gave a pest or weed control at 62 g/ha (woolly cupgrass; Eriochloa villosa, pre-emergence, 312 h, 62 g ai/ha, preemergence, scale 0 to 100, read-out: Plant response rating, Cupgrass, Woolly) of 20%, a pest or weed control at 125 g/ha (woolly cupgrass; Eriochloa villosa, pre-emergence, 312 h, 125 g ai/ha, scale 0 (no effect) to 100 (complete control), visual, 12 to 14 days, read-out: Plant response rating, Cupgrass, Woolly) of 100% and a pest or weed control at 250 g/ha (woolly cupgrass; Eriochloa villosa, pre-emergence, 312 h, 250 g ai/ha, scale 0-100, read-out: Plant response rating, Cupgrass, Woolly) of 100%. The pest or weed control at 500 g/ha (woolly cupgrass; Eriochloa villosa, pre-emergence, 312 h, 500 g ai/ha, scale 0 to 100 (0 no effect, 100 complete control), visual, 12 to 14 days, read-out: Plant response rating, Cupgrass, Woolly) was 100%, the pest or weed control at 62 g/ha (velvetleaf; Abutilon theophrasti, pre-emergence, 62 g ai/ha, preemergence, scale 0 to 100, read-out: Plant response rating, Velvetleaf) was 50% and the pest or weed control at 250 g/ha (velvetleaf; Abutilon theophrasti, pre-emergence, 250 g ai/ha, scale 0-100, read-out: Plant response rating, Velvetleaf) was 100%. The pest or weed control at 500 g/ha (velvetleaf; Abutilon theophrasti, pre-emergence, 500 g ai/ha, scale 0 to 100 (0 no effect, 100 complete control), visual, 12 to 14 days, read-out: Plant response rating, Velvetleaf) was 100%, the pest or weed control at 62 g/ha (yellow nutsedge; Cyperus, pre-emergence, 62 g ai/ha, preemergence, scale 0 to 100, read-out: Plant response rating, Nutsedge, Yellow) was 0% and the pest or weed control at 125 g/ha (yellow nutsedge; Cyperus, pre-emergence, 125 g ai/ha, scale 0 (no effect) to 100 (complete control), visual, 12 to 14 days, read-out: Plant response rating, Nutsedge, Yellow) was 0%. The pest or weed control at 250 g/ha (yellow nutsedge; Cyperus, pre-emergence, 250 g ai/ha, scale 0-100, read-out: Plant response rating, Nutsedge, Yellow) was 20%, the pest or weed control at 500 g/ha (yellow nutsedge; Cyperus, pre-emergence, 500 g ai/ha, scale 0 to 100 (0 no effect, 100 complete control), visual, 12 to 14 days, read-out: Plant response rating, Nutsedge, Yellow) was 60% and the pest or weed control at 62 g/ha (bermudagrass; Cynodon dactylon, pre-emergence, 312 h, 62 g ai/ha, preemergence, scale 0 to 100, 0 no effect, 100 complete control, read-out: Plant response rating, Bermudagrass) was 85%. The pest or weed control at 125 g/ha (bermudagrass; Cynodon dactylon, pre-emergence, 312 h, 125 g ai/ha, scale 0 (no effect) to 100 (complete control), visual, 12 to 14 days, read-out: Plant response rating, Bermudagrass) was 100%, the pest or weed control at 250 g/ha (bermudagrass; Cynodon dactylon, pre-emergence, 312 h, 250 g ai/ha, scale 0-100, read-out: Plant response rating, Bermudagrass) was 100% and the pest or weed control at 500 g/ha (bermudagrass; Cynodon dactylon, pre-emergence, 312 h, Preemergence, 500 g ai/ha, scale 0 to 100, 0 no effect, 100 complete control, read-out: Bermudagrass plant response rating) was 100%. It also gave a pest or weed control at 62 g/ha ([1]; Helianthus annuus, pre-emergence, 62 g ai/ha, preemergence, scale 0 to 100, read-out: Plant response rating, Sunflower) of 0%, a pest or weed control at 250 g/ha ([1]; Helianthus annuus, pre-emergence, 250 g ai/ha, scale 0-100, read-out: Plant response rating, Sunflower) of 30% and a pest or weed control at 500 g/ha ([1]; Helianthus annuus, pre-emergence, 500 g ai/ha, scale 0 to 100 (0 no effect, 100 complete control), visual, 12 to 14 days, read-out: Plant response rating, Sunflower) of 30%. For the same compound, the pest or weed control at 500 g/ha (morningglory; post-emergence, Postemergence, 500 g ai/ha, 0 to 100 scale, 0 no effect, 100 complete control, read-out: Morningglory plant response rating) was 80%, the pest or weed control at 2000 g/ha (morningglory; post-emergence, Postemergence, 2000 g ai/ha, 0 to 100 scale, 0 no effect, 100 complete control, read-out: Plant response rating, Morningglory) was 95% and the pest or weed control at 2000 g/ha (morningglory; pre-emergence, Preemergence, 2000 g ai/ha, visual rating, 0 to 100 scale (0 no effect, 100 complete control), read-out: Morningglory plant response rating) was 100%. It also gave a pest or weed control at 500 g/ha (morningglory; pre-emergence, preemergence, 500 g ai/ha, visual injury, 0 to 100 scale (0 no effect, 100 complete control), read-out: Morningglory plant response rating) of 75%, a pest or weed control at 62 g/ha (giant foxtail; Setaria faberi, pre-emergence, 312 h, 62 g ai/ha, preemergence, scale 0 to 100, read-out: Plant response rating, Foxtail, Giant) of 20% and a pest or weed control at 125 g/ha (giant foxtail; Setaria faberi, pre-emergence, 312 h, 125 g ai/ha, scale 0 (no effect) to 100 (complete control), visual, 12 to 14 days, read-out: Plant response rating, Foxtail, Giant) of 85%. For the same compound, the pest or weed control at 250 g/ha (giant foxtail; Setaria faberi, pre-emergence, 312 h, 250 g ai/ha, scale 0-100, read-out: Plant response rating, Foxtail, Giant) was 95%, the pest or weed control at 500 g/ha (giant foxtail; Setaria faberi, pre-emergence, 312 h, 500 g ai/ha, scale 0 to 100 (0 no effect, 100 complete control), visual, 12 to 14 days, read-out: Plant response rating, Foxtail, Giant) was 100% and the pest or weed control at 62 g/ha (barnyardgrass; Echinochloa crus-galli, 62 g ai/ha, scale 0 to 100 (0 no effect, 100 complete control), read-out: Barnyardgrass plant response rating) was 15%. The pest or weed control at 125 g/ha (barnyardgrass; Echinochloa crus-galli, 125 g ai/ha, scale 0 to 100 (0 no effect, 100 complete control), read-out: Barnyardgrass plant response rating) was 75%, the pest or weed control at 250 g/ha (barnyardgrass; Echinochloa crus-galli, 250 g ai/ha, scale of 0 to 100, 0 is no effect, 100 is complete control, read-out: Barnyardgrass plant response rating) was 90% and the pest or weed control at 500 g/ha (barnyardgrass; Echinochloa crus-galli, 500 g ai/ha, visual rating after 12 to 14 days, scale 0 to 100 (0 no effect, 100 complete control), read-out: Plant response rating, Barnyardgrass) was 95%.
In the case of `CCn1nc(C(C)(C)C)cc1C(=O)Nc1cccc(C(=O)NCC2CC2)c1` [Compound 62], the “Plant response rating, Cupgrass, Woolly” value (woolly cupgrass; [2]) is reported as 0, the “Plant response rating (0 = no effect, 100 = complete control), Cupgrass, Woolly” value (woolly cupgrass; 62 g ai/ha, preemergence) is reported as 0 and the “Plant response rating, Cupgrass, Woolly” value (woolly cupgrass; [3]) is reported as 0. The “Plant response rating, Cupgrass, Woolly” value (woolly cupgrass; [4]) was 20, the “Plant response rating, Velvetleaf” value (velvetleaf; [2]) was 0 and the “Plant response rating, Velvetleaf” value (velvetleaf; [4]) was 70. For the same compound, the “Plant response rating, Nutsedge, Yellow” value (yellow nutsedge; [2]) was 0, the “Plant response rating (0 = no effect, 100 = complete control), Nutsedge, Yellow” value (yellow nutsedge; 62 g ai/ha, preemergence) was 0 and the “Plant response rating, Nutsedge, Yellow” value (yellow nutsedge; [3]) was 10. For the same compound, the “Plant response rating, Nutsedge, Yellow” value (yellow nutsedge; [4]) was 40, the “Plant response rating, Bermudagrass” value (bermudagrass; [2]) was 0 and the “Plant response rating (0 = no effect, 100 = complete control), Bermudagrass” value (bermudagrass; 62 g ai/ha, preemergence) was 10. For the same compound, the “Plant response rating, Bermudagrass” value (bermudagrass; [3]) was 90, the “Plant response rating, Bermudagrass” value (bermudagrass; [4]) was 95 and the “Plant response rating, Sunflower” value [1, 2] was 0. For the same compound, the “Plant response rating (0 = no effect, 100 = complete control), Sunflower” value ([1]; 62 g ai/ha, preemergence) was 0, the “Plant response rating, Sunflower” value [1, 3] was 0 and the “Plant response rating, Sunflower” value [1, 4] was 0. For the same compound, the “Plant response rating, Morningglory” value (morningglory; [5]) was 10, the “Plant response rating, Morningglory” value (morningglory; [6]) was 20 and the “Morningglory plant response rating” value (morningglory; [7]) was 20. For the same compound, the “Morningglory plant response rating” value (morningglory; Preemergence, 2000 g ai/ha, 0 to 100 scale, 0 no effect, 100 complete control) was 75, the “Plant response rating, Foxtail, Giant” value (giant foxtail; [2]) was 5 and the “Plant response rating (0 = no effect, 100 = complete control), Foxtail, Giant” value (giant foxtail; 62 g ai/ha, preemergence) was 15. The “Plant response rating, Foxtail, Giant” value (giant foxtail; [3]) was 65, the “Plant response rating, Foxtail, Giant” value (giant foxtail; [4]) was 85 and the “Barnyardgrass plant response rating” value (barnyardgrass; [8]) was 5. The “Barnyardgrass plant response rating” value (barnyardgrass; [9]) was 10, the “Barnyardgrass plant response rating” value (barnyardgrass; [10]) was 30 and the “Plant response rating, Barnyardgrass” value (barnyardgrass; [11]) was 55.
`CC(=O)c1cccc(NC(=O)c2cc(C(C)(C)C)nn2CCF)c1` [Compound 128] was tested, and the “Plant response rating (0 = no effect, 100 = complete control), Cupgrass, Woolly” value (woolly cupgrass; 62 g ai/ha, preemergence) was 10, the “Plant response rating, Cupgrass, Woolly” value (woolly cupgrass; [3]) was 20 and the “Plant response rating, Velvetleaf” value (velvetleaf; [3]) was 100. The “Plant response rating, Nutsedge, Yellow” value (yellow nutsedge; 16 g ai/ha, scale 0 to 100, last section of Table C, preemergence) was 10, the “Plant response rating, Nutsedge, Yellow” value (yellow nutsedge; 31 g ai/ha, scale 0 to 100, last section of Table C, preemergence) was 70 and the “Plant response rating, Nutsedge, Yellow” value (yellow nutsedge; [3]) was 70. The “Plant response rating, Bermudagrass” value (bermudagrass; 16 g ai/ha, scale 0 to 100, 0 no effect, 100 complete control, last section of Table C (species set of preemergence test)) was 30, the “Plant response rating, Bermudagrass” value (bermudagrass; 31 g ai/ha, scale 0 to 100, 0 no effect, 100 complete control, last section of Table C (species set of preemergence test)) was 90 and the “Plant response rating (0 = no effect, 100 = complete control), Bermudagrass” value (bermudagrass; 62 g ai/ha, preemergence) was 100. For the same compound, the “Plant response rating, Bermudagrass” value (bermudagrass; [3]) was 100, the “Plant response rating, Sunflower” value [1, 3] was 50 and the “Morningglory plant response rating” value (morningglory; [5]) was 10. The “Plant response rating, Morningglory” value (morningglory; [6]) was 15, the “Morningglory plant response rating” value (morningglory; [7]) was 45 and the “Morningglory plant response rating” value (morningglory; Preemergence, 2000 g ai/ha, visual rating, 0 to 100 scale (0 no effect, 100 complete control)) was 85. The “Plant response rating (0 = no effect, 100 = complete control), Foxtail, Giant” value (giant foxtail; 62 g ai/ha, preemergence) was 10, the “Plant response rating, Foxtail, Giant” value (giant foxtail; [3]) was 10 and the “Barnyardgrass plant response rating” value (barnyardgrass; [8]) was 30. For the same compound, the “Barnyardgrass plant response rating” value (barnyardgrass; [9]) was 35, the “Barnyardgrass plant response rating” value (barnyardgrass; [10]) was 60 and the “Plant response rating, Barnyardgrass” value (barnyardgrass; [11]) was 65.
